These results are taken from patent publication US9028880B2, “Silica nanoparticle agent conjugates” (priority 2010, dated 2015).

Where only a bound is given, the exact number is not on record here.

Data set [1] has as its system LLC tumor. In words: In vivo tumor reduction study, single i.v. injection. Also on record: species or system C57Bl/6 mice. Conditions: emulsified Cpt 30 mg/kg i.v.; all animals reached end point at about day 5. The procedure:
The efficacy of the drug conjugated silica NPs was next evaluated using xenograft models of LLC tumor developed by s.c. injection of LLC cells in the flank of C57BL/6 mice. […] Using Cpt as a reference point, the following regimens were administrated by a single i.v. injection: a, PBS; b, PEGylated blank silica NPs; c, emulsified Cpt, 30 mg/kg; d, Cpt-NP, 200 nm, 25 mg/kg; e, Cpt-NP, 20 nm, 25 mg/kg. Tumor size and body weight were then monitored for 10 days. […] Both Cpt-NPs 20 nm and 200 nm in diameter delayed tumor growth at Day 7 and 6, respectively, with statistical significance comparing with control group receiving PBS (p<0.05 by t-test). […] All animals in free Cpt group reached end point with >20% body weight loss at about day 5.
4.5. In vivo Tumor Reduction Study. Female C57Bl/6 mice, 8-week old, were anesthetized, shaved, and prepared for implantation of the tumor cells. […] After two weeks when tumors had reached ˜300 mm^3, mice were divided into five groups of five mice, minimizing weight and tumor size difference. Tumor-bearing mice were treated by intravenous injection of PBS (1×), PEGylated blank silica NPs (250 mg/kg), emulsified free CPT (Tween 80 (5%)/DMSO (10%) in PBS (1×), 30 mg/kg), CPT-NP (200 nm, 25 mg/kg) or CPT-NP (20 nm, 25 mg/kg). […]

Data set [2] has as its system LNCaP prostate adenocarcinoma cells. Nature of the data set: In vitro toxicity (MTT assay). Format: cell-based. The following applies: Homo sapiens, MTT assay after 96 h, CPT or equivalent CPT. The procedure: 3.3. In vitro toxicity (MTT assay). LNCaP prostate adenocarcinoma cell lines were obtained from ATCC (Manassas, Va., USA). Cells were seeded in 96-well plates at 5,000 cells/well and grown in medium containing 10% fetal bovine serum at 37° C. for 24 h in a humidified 5% CO2 atmosphere. The medium was replaced with fresh medium containing CPT, CPT-NPs in concentrations ranging from 1 nM to 10 μM of CPT or equivalent CPT (CPT-NPs). At each concentration, six wells per plate were treated. The effect of the compounds on cell growth was measured by the MTT assay after 96 h. The medium was removed, the cells were rinsed with PBS, MTT solution was added at a concentration of 0.5 mg/mL, and the plates were incubated for 4 hours at 37° C. The medium was removed and the formazan crystals were solubilized in MTT solubilization solution. Absorbance was measured at 560 nm using a Victor V microplate reader (Perkin Elmer, Waltham, Mass.). The percentage of cell survival was calculated relative to untreated cells, and IC50 values were determined from plots of cell survival versus dose (Table 4).
(Formazan colour is commonly taken as a measure of viable cells.)

In data set [3] the test system is LLC tumor. In words: In vivo tumor prevention study. Set-up: species or system C57Bl/6 mice. Conditions: s.c. co-injection with LLC cells. The protocol: To access the ability of Cpt-NCs to prevent establishment of a murine lung cancer in an in vivo model, Cpt-NCs were evaluated in the rapidly growing subcutaneous (s.c.) LLC tumor model in C57Bl/6 female mice. The ability of Cpt50 (5 mg/kg) to prevent LLC tumor establishment and growth was assessed by comparing to free Cpt (5 mg/kg) and LLC cancer cells alone without any treatment. The mice were s.c. injected with the mixture of [LLC and Cpt50], [LLC and Cpt] or LLC alone Animals were monitored clinically and the tumors were measured daily without knowledge of the treatment received.
Female C57Bl/6 mice, 12-13 weeks old, were anesthetized, shaved, and prepared for implantation of the tumor cells. LLC cells were collected from culture, and 750,000 cells were then mixed with Cpt50 and immediately injected subcutaneously into one flank of a mouse. The dose of equivalent Cpt was 5 mg/kg. Equivalent injections of cells with free CPT solubilized with Tween 80 (5%)/DMSO (10%) or PBS were also performed (n=5). The simultaneous injection procedure is required to assure that the cancer cells and the treatment are delivered to the same subcutaneous pocket as it would be easy to accidentally inject into different spaces when performing two separate injections.

For data set [4], the system named is MCF-7 tumors. Nature of the data set: In vivo tumor reduction study, MCF-7 xenograft.
Description: To further study the effect of particle size, a xenograft human breast cancer model was chosen. Subcutaneous MCF-7 tumors developed on the flank of athymic nude mice were used to evaluate the antitumor efficacy of the drug-silica nanoconjugates with different sizes. The nude mice were implanted with an estrogen pellet and 1,000,000 MCF-7 cells per site. After tumors had developed to ˜40 mm^3, comparative efficacy studies were performed by dividing animals into six groups (n=20 or 24) to minimize weight and tumor size differences among the groups.
Female athymic nude, OVX, 9-week old mice were anesthetized, and prepared for implantation of the tumor cells. […]
After dosing, the animals were monitored closely, and measurements of the tumor size for each animal were performed at regular intervals using calipers without knowledge of which injection each animal had received. The tumor volume for each time point was calculated according to the formula (length)×(width)/2, where the long axis is the length, the short axis is the width. […] When an animal exited the study due to tumor size or treatment related death, the final tumor size recorded for the animal was included with the data used to calculate the mean size at subsequent time point.

As usually defined, the IC50 is the concentration needed to halve the response being measured. Take `CC[C@@]1(O)C(=O)OCc2c1cc1n(c2=O)Cc2cc3ccccc3nc2-1` [CPT, Camptothecin]: in data set [1], the body weight loss is reported as over 20%. Also, in data set [2], the IC50 was determined as 7 nM. The “Day of statistically significant difference vs LLC group” value in data set [3] (5 mg/kg) came out at 20 days. In addition, in data set [3] (5 mg/kg equivalent Cpt), the Tumor growth prevention result is recorded as “complete inhibition of tumor growth after Day 20”.

Take `CCc1c2c(nc3ccc(OC(=O)N4CCC(N5CCCCC5)CC4)cc13)-c1cc3c(c(=O)n1C2)COC(=O)[C@]3(O)CC` [Irinotecan]: the “Day from which tumor growth delay was significant vs PBS group” value in data set [4] (NCs 20 mg/kg i.v. Q4d×3, Irinotecan 100 mg/kg i.p. Qwk×3, *p<0.05) is 8 days. In data set [4] (NCs 20 mg/kg, Irinotecan 100 mg/kg), the “Body weight / systemic toxicity” value was “Significant body weight loss”.
